Source: ChEMBL document CHEMBL4507299, “Data for DCP probe PF-04554878” (2021)

How the values were obtained:
[1] = biological target: Activin receptor type-1 (Homo sapiens) (UniProt Q04771)
[2] = biological target: Atypical kinase COQ8B, mitochondrial (Homo sapiens) (UniProt Q96D53)
[3] = biological target: Mitogen-activated protein kinase kinase kinase 5 (Homo sapiens) (UniProt Q99683)
[4] = biological target: Calcium/calmodulin-dependent protein kinase type II subunit beta (Homo sapiens) (UniProt Q13554)
Sequence of Calcium/calmodulin-dependent protein kinase type II subunit beta (Homo sapiens) (Q13554 whole entry): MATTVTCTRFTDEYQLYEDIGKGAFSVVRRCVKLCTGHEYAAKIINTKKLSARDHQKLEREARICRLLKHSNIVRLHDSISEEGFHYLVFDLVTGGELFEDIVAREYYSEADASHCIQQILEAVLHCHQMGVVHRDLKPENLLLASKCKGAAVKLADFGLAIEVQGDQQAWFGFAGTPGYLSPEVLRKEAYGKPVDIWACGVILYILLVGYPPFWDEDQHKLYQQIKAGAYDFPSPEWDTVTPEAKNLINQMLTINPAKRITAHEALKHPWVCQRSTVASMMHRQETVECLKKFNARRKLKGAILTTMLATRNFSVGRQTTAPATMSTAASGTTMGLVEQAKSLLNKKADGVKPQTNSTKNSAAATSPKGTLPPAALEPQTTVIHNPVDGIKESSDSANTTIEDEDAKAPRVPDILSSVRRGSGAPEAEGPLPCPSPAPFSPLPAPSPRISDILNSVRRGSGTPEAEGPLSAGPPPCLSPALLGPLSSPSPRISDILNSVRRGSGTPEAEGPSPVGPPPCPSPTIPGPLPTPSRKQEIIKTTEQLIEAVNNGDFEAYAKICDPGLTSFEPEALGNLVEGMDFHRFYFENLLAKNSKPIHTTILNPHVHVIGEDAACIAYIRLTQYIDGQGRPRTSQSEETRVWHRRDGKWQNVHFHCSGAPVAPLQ

[5] = biological target: Calcium/calmodulin-dependent protein kinase kinase 2 (Homo sapiens) (UniProt Q96RR4)
[6] = biological target: Macrophage colony-stimulating factor 1 receptor (Homo sapiens) (UniProt P07333)
[7] = biological target: Casein kinase I isoform delta (Homo sapiens) (UniProt P48730)
[8] = biological target: Casein kinase I isoform gamma-2 (Homo sapiens) (UniProt P78368)
[9] = biological target: Casein kinase I isoform gamma-3 (Homo sapiens) (UniProt Q9Y6M4)
[10] = biological target: Serine/threonine-protein kinase 17B (Homo sapiens) (UniProt O94768)
Sequence of Serine/threonine-protein kinase 17B (Homo sapiens) (O94768 whole entry): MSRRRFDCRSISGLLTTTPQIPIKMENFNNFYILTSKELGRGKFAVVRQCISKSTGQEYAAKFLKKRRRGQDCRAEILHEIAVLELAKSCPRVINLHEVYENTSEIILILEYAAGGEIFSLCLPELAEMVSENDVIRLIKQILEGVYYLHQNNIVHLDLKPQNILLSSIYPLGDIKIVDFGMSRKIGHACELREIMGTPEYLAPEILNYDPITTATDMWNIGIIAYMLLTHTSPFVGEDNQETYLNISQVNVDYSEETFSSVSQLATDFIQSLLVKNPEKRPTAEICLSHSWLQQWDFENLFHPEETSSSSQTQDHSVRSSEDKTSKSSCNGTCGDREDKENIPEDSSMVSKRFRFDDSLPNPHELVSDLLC

[11] = test system: Epidermal growth factor receptor (Homo sapiens), P00533 [UNDEFINED MUTATION]
[12] = biological target: Receptor tyrosine-protein kinase erbB-3 (Homo sapiens) (UniProt P21860)
[13] = biological target: Serine/threonine-protein kinase/endoribonuclease IRE1 (Homo sapiens) (UniProt O75460)
[14] = biological target: Fibroblast growth factor receptor 2 (Homo sapiens) (UniProt P21802)
[15] = biological target: G protein-coupled receptor kinase 4 (Homo sapiens) (UniProt P32298)
Sequence of G protein-coupled receptor kinase 4 (Homo sapiens) (P32298 whole entry, looked up): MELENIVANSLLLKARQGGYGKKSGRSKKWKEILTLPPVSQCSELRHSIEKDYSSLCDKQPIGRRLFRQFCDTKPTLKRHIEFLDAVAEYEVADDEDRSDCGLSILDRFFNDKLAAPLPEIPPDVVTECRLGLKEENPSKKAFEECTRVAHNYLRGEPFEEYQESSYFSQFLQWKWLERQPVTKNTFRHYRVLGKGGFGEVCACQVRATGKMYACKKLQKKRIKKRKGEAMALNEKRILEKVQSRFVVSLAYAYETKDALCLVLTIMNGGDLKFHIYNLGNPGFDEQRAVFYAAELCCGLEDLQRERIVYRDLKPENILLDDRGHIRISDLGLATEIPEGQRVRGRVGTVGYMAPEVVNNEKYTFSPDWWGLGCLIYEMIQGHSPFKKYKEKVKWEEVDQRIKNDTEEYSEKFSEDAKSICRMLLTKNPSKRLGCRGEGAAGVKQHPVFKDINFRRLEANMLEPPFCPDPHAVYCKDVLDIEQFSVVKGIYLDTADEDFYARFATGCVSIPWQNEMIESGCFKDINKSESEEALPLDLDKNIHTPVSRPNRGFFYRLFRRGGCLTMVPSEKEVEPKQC

[16] = biological target: Glycogen synthase kinase-3 alpha (Homo sapiens) (UniProt P49840)
[17] = biological target: Homeodomain-interacting protein kinase 2 (Homo sapiens) (UniProt Q9H2X6)
[18] = biological target: Interleukin-1 receptor-associated kinase 1 (Homo sapiens) (UniProt P51617)
[19] = biological target: Mitogen-activated protein kinase kinase kinase kinase 2 (Homo sapiens) (UniProt Q12851)
[20] = biological target: MAP kinase-activated protein kinase 5 (Homo sapiens) (UniProt Q8IW41)
[21] = biological target: Serine/threonine-protein kinase MARK2 (Homo sapiens) (UniProt Q7KZI7)
[22] = biological target: MAP/microtubule affinity-regulating kinase 3 (Homo sapiens) (UniProt P27448)
[23] = biological target: Serine/threonine-protein kinase Nek4 (Homo sapiens) (UniProt P51957)
Sequence of Serine/threonine-protein kinase Nek4 (Homo sapiens) (P51957 whole entry, looked up): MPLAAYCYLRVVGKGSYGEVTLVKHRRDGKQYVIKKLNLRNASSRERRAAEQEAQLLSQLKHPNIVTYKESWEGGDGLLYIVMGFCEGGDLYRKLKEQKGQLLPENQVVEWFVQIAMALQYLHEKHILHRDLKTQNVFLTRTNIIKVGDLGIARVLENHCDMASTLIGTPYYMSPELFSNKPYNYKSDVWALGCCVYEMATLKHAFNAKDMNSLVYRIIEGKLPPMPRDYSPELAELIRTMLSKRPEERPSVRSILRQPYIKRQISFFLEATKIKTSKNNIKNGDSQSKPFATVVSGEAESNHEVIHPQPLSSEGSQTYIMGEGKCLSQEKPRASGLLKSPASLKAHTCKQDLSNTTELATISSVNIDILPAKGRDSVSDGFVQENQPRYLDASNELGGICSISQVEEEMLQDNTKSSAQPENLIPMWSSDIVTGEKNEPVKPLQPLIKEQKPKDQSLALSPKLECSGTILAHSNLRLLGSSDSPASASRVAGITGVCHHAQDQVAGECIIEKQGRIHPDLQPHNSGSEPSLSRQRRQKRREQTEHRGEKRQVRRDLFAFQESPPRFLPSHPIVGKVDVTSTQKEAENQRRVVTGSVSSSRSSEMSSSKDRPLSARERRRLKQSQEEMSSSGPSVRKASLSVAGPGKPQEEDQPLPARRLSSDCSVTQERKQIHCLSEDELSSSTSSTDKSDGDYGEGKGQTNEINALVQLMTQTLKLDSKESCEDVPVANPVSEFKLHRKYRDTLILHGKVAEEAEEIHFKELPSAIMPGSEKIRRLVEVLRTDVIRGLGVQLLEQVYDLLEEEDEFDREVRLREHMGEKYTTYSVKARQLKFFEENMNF

[24] = biological target: Mitogen-activated protein kinase 12 (Homo sapiens) (UniProt P53778)
Sequence of Mitogen-activated protein kinase 12 (Homo sapiens) (P53778 whole entry): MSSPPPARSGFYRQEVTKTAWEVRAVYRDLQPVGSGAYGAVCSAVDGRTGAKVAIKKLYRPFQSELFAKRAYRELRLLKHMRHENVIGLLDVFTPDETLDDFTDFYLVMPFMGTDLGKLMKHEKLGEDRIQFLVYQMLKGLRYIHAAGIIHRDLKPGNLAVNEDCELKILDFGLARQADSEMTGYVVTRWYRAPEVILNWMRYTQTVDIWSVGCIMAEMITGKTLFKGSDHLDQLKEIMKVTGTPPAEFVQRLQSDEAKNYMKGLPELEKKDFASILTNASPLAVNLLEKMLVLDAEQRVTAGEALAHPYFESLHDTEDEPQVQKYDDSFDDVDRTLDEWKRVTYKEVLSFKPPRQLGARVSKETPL

[25] = biological target: Serine/threonine-protein kinase PAK 2 (Homo sapiens) (UniProt Q13177)
[26] = biological target: Platelet-derived growth factor receptor alpha (Homo sapiens) (UniProt P16234)
[27] = biological target: Phosphorylase b kinase regulatory subunit alpha, liver isoform (Homo sapiens) (UniProt P46019)
[28] = biological target: Phosphatidylinositol 4,5-bisphosphate 3-kinase catalytic subunit beta isoform (Homo sapiens) (UniProt P42338)
[29] = biological target: Serine/threonine-protein kinase pim-2 (Homo sapiens) (UniProt Q9P1W9)
Sequence of Serine/threonine-protein kinase pim-2 (Homo sapiens) (Q9P1W9 whole entry, looked up): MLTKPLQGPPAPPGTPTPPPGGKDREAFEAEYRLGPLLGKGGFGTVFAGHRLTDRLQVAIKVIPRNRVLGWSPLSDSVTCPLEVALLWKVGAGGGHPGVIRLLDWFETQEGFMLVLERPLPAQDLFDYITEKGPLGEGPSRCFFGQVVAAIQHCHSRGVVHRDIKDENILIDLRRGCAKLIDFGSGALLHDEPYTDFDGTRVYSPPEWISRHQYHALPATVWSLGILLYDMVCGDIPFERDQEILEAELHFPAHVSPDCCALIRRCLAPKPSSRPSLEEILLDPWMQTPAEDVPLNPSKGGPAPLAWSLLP

[30] = biological target: Protein kinase C eta type (Homo sapiens) (UniProt P24723)
[31] = biological target: Interferon-induced, double-stranded RNA-activated protein kinase (Homo sapiens) (UniProt P19525)
[32] = test system: Proto-oncogene tyrosine-protein kinase receptor Ret (Homo sapiens), P07949 [V804M]
Sequence of Proto-oncogene tyrosine-protein kinase receptor Ret (Homo sapiens), P07949 [V804M] (P07949 whole entry V804M): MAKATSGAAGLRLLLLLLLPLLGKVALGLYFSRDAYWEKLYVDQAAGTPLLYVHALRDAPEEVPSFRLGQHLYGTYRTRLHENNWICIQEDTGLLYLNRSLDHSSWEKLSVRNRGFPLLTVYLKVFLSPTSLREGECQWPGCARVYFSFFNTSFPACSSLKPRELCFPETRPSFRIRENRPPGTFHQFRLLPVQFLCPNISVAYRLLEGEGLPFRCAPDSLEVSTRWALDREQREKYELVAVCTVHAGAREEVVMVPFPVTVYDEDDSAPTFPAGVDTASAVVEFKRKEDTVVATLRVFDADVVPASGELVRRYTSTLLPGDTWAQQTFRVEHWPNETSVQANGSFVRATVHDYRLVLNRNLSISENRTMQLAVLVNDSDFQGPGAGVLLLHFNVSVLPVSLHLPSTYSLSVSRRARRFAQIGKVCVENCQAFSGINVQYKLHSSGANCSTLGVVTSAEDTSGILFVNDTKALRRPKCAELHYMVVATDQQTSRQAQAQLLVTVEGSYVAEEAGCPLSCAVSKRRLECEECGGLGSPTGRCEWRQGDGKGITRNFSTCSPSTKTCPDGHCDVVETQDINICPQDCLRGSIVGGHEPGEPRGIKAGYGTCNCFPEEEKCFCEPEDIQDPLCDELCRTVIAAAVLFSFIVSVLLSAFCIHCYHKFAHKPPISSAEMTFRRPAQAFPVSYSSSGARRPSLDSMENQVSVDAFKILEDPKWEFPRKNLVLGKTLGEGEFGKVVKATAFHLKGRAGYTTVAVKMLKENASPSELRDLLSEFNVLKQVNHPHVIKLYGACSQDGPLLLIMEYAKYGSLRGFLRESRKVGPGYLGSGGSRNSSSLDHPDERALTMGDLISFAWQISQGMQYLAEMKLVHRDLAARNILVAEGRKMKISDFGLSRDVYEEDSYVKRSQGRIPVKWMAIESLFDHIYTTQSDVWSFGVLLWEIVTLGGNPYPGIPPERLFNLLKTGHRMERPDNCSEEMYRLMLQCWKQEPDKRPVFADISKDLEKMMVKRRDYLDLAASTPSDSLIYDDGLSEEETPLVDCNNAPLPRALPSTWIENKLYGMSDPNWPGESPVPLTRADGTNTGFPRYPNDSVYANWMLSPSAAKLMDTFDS

[33] = biological target: Serine/threonine-protein kinase RIO3 (Homo sapiens) (UniProt O14730)
[34] = biological target: Ribosomal protein S6 kinase beta-1 (Homo sapiens) (UniProt P23443)
[35] = biological target: Uncharacterized serine/threonine-protein kinase SBK3 (Homo sapiens) (UniProt P0C264)
[36] = biological target: STE20-like serine/threonine-protein kinase (Homo sapiens) (UniProt Q9H2G2)
[37] = biological target: Serine/threonine-protein kinase TBK1 (Homo sapiens) (UniProt Q9UHD2)
Sequence of Serine/threonine-protein kinase TBK1 (Homo sapiens) (Q9UHD2 whole entry): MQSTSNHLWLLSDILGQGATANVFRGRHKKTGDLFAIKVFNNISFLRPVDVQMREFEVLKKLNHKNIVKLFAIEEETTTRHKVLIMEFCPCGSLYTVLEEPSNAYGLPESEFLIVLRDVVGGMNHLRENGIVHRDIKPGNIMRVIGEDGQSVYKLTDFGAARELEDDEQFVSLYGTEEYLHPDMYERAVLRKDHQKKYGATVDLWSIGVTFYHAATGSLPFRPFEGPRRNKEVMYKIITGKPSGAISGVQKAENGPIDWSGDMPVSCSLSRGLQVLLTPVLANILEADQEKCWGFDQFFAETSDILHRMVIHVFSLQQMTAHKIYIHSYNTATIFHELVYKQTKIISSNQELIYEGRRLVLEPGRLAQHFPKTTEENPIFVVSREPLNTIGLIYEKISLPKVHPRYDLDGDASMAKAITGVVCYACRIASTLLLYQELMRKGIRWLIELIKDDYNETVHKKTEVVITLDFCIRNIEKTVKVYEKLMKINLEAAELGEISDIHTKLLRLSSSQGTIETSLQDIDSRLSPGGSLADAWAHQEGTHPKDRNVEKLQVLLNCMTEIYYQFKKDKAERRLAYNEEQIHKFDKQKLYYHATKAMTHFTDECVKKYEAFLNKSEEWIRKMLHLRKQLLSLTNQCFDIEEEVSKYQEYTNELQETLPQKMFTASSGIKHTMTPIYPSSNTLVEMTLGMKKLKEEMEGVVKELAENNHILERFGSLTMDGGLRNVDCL

[38] = biological target: Angiopoietin-1 receptor (Homo sapiens) (UniProt Q02763)
[39] = biological target: TRAF2 and NCK-interacting protein kinase (Homo sapiens) (UniProt Q9UKE5)
[40] = biological target: High affinity nerve growth factor receptor (Homo sapiens) (UniProt P04629)
[41] = biological target: Non-receptor tyrosine-protein kinase TYK2 (Homo sapiens) (UniProt P29597)
[42] = biological target: Mitogen-activated protein kinase kinase kinase 19 (Homo sapiens) (UniProt Q56UN5)
[43] = biological target: Alpha-1A adrenergic receptor (Homo sapiens) (UniProt P35348); details: Compound concentration 10.0 uM
[44] = biological target: Alpha-1B adrenergic receptor (Homo sapiens) (UniProt P35368); details: Compound concentration 10.0 uM
[45] = biological target: Alpha-2C adrenergic receptor (Homo sapiens) (UniProt P18825); details: Compound concentration 10.0 uM
[46] = Compound concentration 100.0 nM
[47] = Compound concentration 1000.0 nM

CNC(=O)c1ccc(Nc2ncc(C(F)(F)F)c(NCc3nccnc3N(C)S(C)(=O)=O)n2)cc1 [DEFACTINIB]
residual activity [1, 46]: 100%
residual activity [2, 46]: 88%
residual activity [3, 46]: 100%
residual activity [4, 46]: 86%
residual activity [5, 46]: 68%
residual activity [6, 46]: 76%
residual activity [7, 46]: 98%
residual activity [8, 46]: 99%
residual activity [9, 46]: 100%
residual activity [10, 46]: 100%
residual activity [11, 46]: 82%
residual activity [12, 46]: 93%
residual activity [13, 46]: 75%
residual activity [14, 46]: 100%
residual activity [15, 46]: 98%
residual activity [16, 46]: 83%
residual activity [17, 46]: 37%
residual activity [18, 46]: 77%
residual activity [19, 46]: 100%
residual activity [20, 46]: 76%
residual activity [21, 46]: 66%
residual activity [22, 46]: 90%
residual activity [23, 46]: 76%
residual activity [24, 46]: 67%
residual activity [25, 46]: 72%
residual activity [26, 46]: 77%
residual activity [27, 46]: 75%
residual activity [28, 46]: 45%
residual activity [29, 46]: 100%
residual activity [30, 46]: 86%
residual activity [31, 46]: 100%
residual activity [32, 46]: 30%
residual activity [33, 46]: 55%
residual activity [34, 46]: 96%
residual activity [35, 46]: 100%
residual activity [36, 46]: 53%
residual activity [37, 46]: 75%
residual activity [38, 46]: 69%
residual activity [39, 46]: 65%
residual activity [40, 46]: 13%
residual activity [41, 46]: 87%
residual activity [42, 46]: 1.7%
inhibition [43]: -4.42%
inhibition [44]: -0.22%
inhibition [45]: 4.73%

CN(c1ccnc(CNc2nc(Nc3ccc4c(c3)CC(=O)N4)ncc2C(F)(F)F)n1)S(C)(=O)=O [PF-00911705]
residual activity [1, 47]: 91%
residual activity [2, 47]: 84%
residual activity [3, 47]: 100%
residual activity [4, 47]: 86%
residual activity [5, 47]: 69%
residual activity [6, 47]: 100%
residual activity [7, 47]: 100%
residual activity [8, 47]: 100%
residual activity [9, 47]: 100%
residual activity [10, 47]: 48%
residual activity [11, 47]: 57%
residual activity [12, 47]: 78%
residual activity [13, 47]: 49%
residual activity [14, 47]: 59%
residual activity [15, 47]: 10%
residual activity [16, 47]: 64%
residual activity [17, 47]: 54%
residual activity [18, 47]: 13%
residual activity [19, 47]: 39%
residual activity [20, 47]: 94%
residual activity [21, 47]: 47%
residual activity [22, 47]: 52%
residual activity [23, 47]: 84%
residual activity [24, 47]: 58%
residual activity [25, 47]: 83%
residual activity [26, 47]: 58%
residual activity [27, 47]: 63%
residual activity [28, 47]: 100%
residual activity [29, 47]: 100%
residual activity [30, 47]: 100%
residual activity [31, 47]: 82%
residual activity [32, 47]: 31%
residual activity [33, 47]: 8.5%
residual activity [34, 47]: 50%
residual activity [35, 47]: 100%
residual activity [36, 47]: 41%
residual activity [37, 47]: 21%
residual activity [38, 47]: 50%
residual activity [39, 47]: 77%
residual activity [40, 47]: 10%
residual activity [41, 47]: 59%
residual activity [42, 47]: 0.4%
inhibition [43]: -3.55%
inhibition [44]: 0.5%
inhibition [45]: 4.91%
